Measurements reported in paper PMC12321279, “Novel 4,5‐Dihydrothiazole‐Phenylpiperazine Derivatives: Synthesis, Docking Studies and Pharmacological Evaluation as Serotonergic Agents” (Chemmedchem, 2025).
pIC50: −log10 of the molar value.

Tests used:
[1] = biological target: 5‐HT2A receptor (Rattus norvegicus, UniProt P14842); assay: Inhibition of 5‐HT‐evoked contractions in isolated rat ileum; set-up: segments (1–1.5 cm) of ileum were removed, flushed of luminal contents, and placed in Krebs solution; from tissue; host or cells: isolated rat (Sprague-Dawley) ileum segments; conditions: 5‐HT 10^−5 M, compounds 10^−8–10^−5 M; for Emax: read-out: EMAX, maximal inhibitory effect on 5‐HT‐induced contractions in the rat ileum; for pIC50: IC50, inhibition of 5‐HT‐induced contractions in the rat ileum, contact time 10 min
5‐HT2A receptor, sequence (P14842 whole entry): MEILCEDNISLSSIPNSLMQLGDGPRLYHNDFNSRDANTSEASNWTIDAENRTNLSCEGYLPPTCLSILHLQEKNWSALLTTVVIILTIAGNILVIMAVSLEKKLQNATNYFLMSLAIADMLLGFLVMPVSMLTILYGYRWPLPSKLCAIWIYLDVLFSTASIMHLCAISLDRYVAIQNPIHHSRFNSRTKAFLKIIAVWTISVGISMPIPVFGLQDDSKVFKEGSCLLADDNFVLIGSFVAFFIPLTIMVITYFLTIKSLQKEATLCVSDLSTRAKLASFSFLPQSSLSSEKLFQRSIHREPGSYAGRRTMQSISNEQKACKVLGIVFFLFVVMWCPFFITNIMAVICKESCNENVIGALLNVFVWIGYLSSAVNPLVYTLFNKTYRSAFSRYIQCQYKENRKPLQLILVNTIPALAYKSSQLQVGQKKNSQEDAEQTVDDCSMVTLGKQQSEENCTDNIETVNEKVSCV
Protocol: Male rats (Sprague‐Dawley, 160–200 g; Charles River Laboratories; Calco, Italy) were manipulated and cared for in strict compliance with the principles of laboratory animal care. Experimental procedures were conducted in conformity with Italian (D.L. 26/2014) and European (directive 2010/63/EU) regulations on the protection of animals used for scientific purposes and approved by the Italian Ministry. Animal housing complied with recent pharmacological guidance.^[ [40] ^] All animals weighing 160–200 g were used after a 1‐week acclimation period (temperature 23 ± 2 °C; humidity 60%, free access to water and standard food).
The segments were prepared as previously described:^[ [41] ^] the segments were set up in such a way as to record contractions mainly from the longitudinal axis, in an organ bath containing 20 mL of Krebs solution, bubbled with 95% O2 and 5% CO2 and maintained at 37 °C. The tissues were connected to an isotonic transducer (load: 0.5 g), connected to Power Lab system (Ugo Basile, Comerio, Italy). Ileal segments were equilibrated for 60 min^[ [16] ^] followed by three repeated additions of submaximal concentration of 5‐HT (10^−5 M) in order to record stable control contractions. […] The contact time for each concentration was 10 min. The compounds were dissolved in DMSO. […] Results are expressed as mean (SEM). […] The IC50 and Emax values were calculated with the aid of a computer program (GraphPad Prism 5).

[2] = test system: mice; assay: Forced swim test (FST, Porsolt's test); format: in vivo
Protocol: (§1) The tests were performed on male white mice of the Albino Swiss strain, whose weight was between 24 and 30 g in Experimental Medicine Center, Medical University of Lublin, Poland. The animals were housed (four/five per cage). Before conducting the experimental tests, the animals were subjected to an adaptation that lasted seven days. This consisted of keeping them in a room with relatively constant conditions: a temperature of 22 ± 1 °C, a humidity of 55 ± 5% and lighting that mimicked the natural day and night rhythm (12 h/12 h). Constant access to food and water was provided. Standard feed—LSM Motycz pelleted feed—and tap water were used. Mice were randomly allocated to study groups. Each group was represented by 8–10 animals, depending on the research schedule. The experiments were performed according to the procedures set out in the regulations for animal experiments: National Institute of Health Guidelines for the Care and Use of Laboratory Animals (8th edition) and to the European Community Council Directive for the Care and Use of Laboratory Animals of 22 September 2010 (2010/63/EU). The study was approved by the Local Ethical Committee in Lublin (number of ethical approvals: 27/2023). Tested compounds: FG‐1, FG‐4, FG‐5, FG‐6, FG‐7, FG‐8, and FG‐18 were finely ground in mortars with the addition of the emulsifier Tween‐80. A suspension was obtained, which was then diluted with aqueous solution of 0.5% methylcellulose (tylose). The mixture was then administered intraperitoneally (i.p.) to the animals 60 min before the start of the experiments. Animals in the control groups received a 0.5% tylose solution. All substances were administered via the same route of administration in appropriate dose and volume of 0.1 mL per 10 g of animal body weight. Prior to the administration of the drug, the animals were weighed, during the interval between tests, they were provided with food, water, and constant living conditions.
The study was carried out using the test proposed by R. Porsolt.^[ [46] ^] The method is based on the observation of an animal forced to swim in a confined space from which there is no escape. After an initial period of vigorous attempts to get out, the animal finally gives up on escaping. The test consists of immersing the mouse individually in a cylinder (diameter 10 cm, height 25 cm) filled with water (at a temperature of 23–25 °C) to a height of 10 cm for 6 min. In this test, two parameters were measured: immobility time in seconds (s), understood as the state in which the mouse makes only those movements that are necessary to keep the head above water, and the latency to the first immobility (s). Measurements were taken during the last 4 min of the experiment, starting from the 2nd to the 6th minute. At the end of each session, the animals were removed from the cylinders, dried with a towel, and placed near a heater until completely dry. Antidepressants typically show increased latency and decreased immobility in this test.

[3] = test system: mice; assay: MK‐801‐induced hyperactivity test; format: in vivo; conditions: 30 mg/kg i.p. 60 min before test, MK‐801 0.3 mg kg^−1 s.c., 20 min observation
Protocol: as §1, with “conditions. […]” for “conditions.”

[4] = 30 mg kg^−1 i.p. 60 min before test
[5] = 15 mg kg^−1 i.p. 60 min before test
[6] = 7.5 mg kg^−1 i.p. 60 min before test

O=C(NCCCN1CCN(c2ccc(C3=NCCS3)cc2)CC1)C1CC2C=CC1C2 (stereo not drawn) [FG‐18, Endo‐ N‐(3‐(4‐(4‐(4,5‐dihydrothiazol‐2‐yl)phenyl)piperazin‐1‐yl)propyl) bicyclo[2.2.1]hept‐5‐ene‐2‐carboxamide]
Emax [1]: 32.8% | pIC50 [1]: 5.53

O=C1C2C3C=CC(C3)C2C(=O)N1OCCCN1CCN(c2cccc(C3=NCCS3)c2)CC1 (centres unmarked) [FG‐8, 2‐(3‐(4‐(3‐(4,5‐dihydrothiazol‐2‐yl) phenyl) piperazin‐1‐yl) propoxy)‐3a,4,7,7a‐tetrahydro‐1H‐4,7‐methanoisoindole‐1,3(2H)‐dione]
FST, latency to first immobility [2, 4]: significant increase in latency to first immobility | FST, total duration of immobility [2, 4]: significant decrease in immobility | Emax [1]: 21.4% | pIC50 [1]: 6.81

O=C(NCCCN1CCN(c2cccc(C3=NCCS3)c2)CC1)c1ccccn1 [FG‐2, N‐(3‐(4‐(3‐(4,5‐dihydrothiazol‐2‐yl) phenyl) piperazin‐1‐yl) propyl) picolinamide]
Emax [1]: 25.4% | pIC50 [1]: 5.21

O=C(NCCCN1CCN(c2ccccc2C2=NCCS2)CC1)c1ccccn1 [FG‐1, N‐(3‐(4‐(2‐(4,5‐dihydrothiazol‐2‐yl) phenyl) piperazin‐1‐yl) propyl) picolinamide]
MK‐801‐induced hyperactivity [3]: significant decrease in MK‐801‐induced hyperactivity | FST, total duration of immobility [2, 5]: significant decrease in immobility | FST, latency to first immobility [2, 4]: significant increase in latency to first immobility | FST, total duration of immobility [2, 4]: significant decrease in immobility

O=C(NCCCN1CCN(c2cccc(C3=NCCS3)c2)CC1)c1ccncc1 [FG‐5, N‐(3‐(4‐(3‐(4,5‐dihydrothiazol‐2‐yl) phenyl) piperazin‐1‐yl) propyl) isonicotinamide]
FST, total duration of immobility [2, 5]: significant decrease in immobility | FST, latency to first immobility [2, 4]: significant increase in latency to first immobility | FST, total duration of immobility [2, 4]: significant decrease in immobility

O=C(NCCCN1CCN(c2ccccc2C2=NCCS2)CC1)c1ccncc1 [FG‐4, N‐(3‐(4‐(2‐(4,5‐dihydrothiazol‐2‐yl) phenyl) piperazin‐1‐yl) propyl) isonicotinamide]
MK‐801‐induced hyperactivity [3]: significant decrease in MK‐801‐induced hyperactivity

O=C(NCCCN1CCN(c2ccc(C3=NCCS3)cc2)CC1)c1ccncc1 [FG‐6, N‐(3‐(4‐(4‐(4,5‐dihydrothiazol‐2‐yl) phenyl) piperazin‐1‐yl) propyl) isonicotinamide]
MK‐801‐induced hyperactivity [3]: significant decrease in MK‐801‐induced hyperactivity | FST, latency to first immobility [2, 6]: significant increase in latency to first immobility | FST, total duration of immobility [2, 6]: significant decrease in immobility | FST, latency to first immobility [2, 5]: significant increase in latency to first immobility | FST, total duration of immobility [2, 5]: significant decrease in immobility

O=C1C2C3C=CC(C3)C2C(=O)N1OCCCN1CCN(c2ccccc2C2=NCCS2)CC1 (centres unmarked) [FG‐7, 2‐(3‐(4‐(2‐(4,5‐dihydrothiazol‐2‐yl) phenyl) piperazin‐1‐yl) propoxy)‐3a,4,7,7a‐tetrahydro‐1 H‐4,7‐methanoisoindole‐1,3(2 H)‐dione]
Emax [1]: 24.5% | pIC50 [1]: 5.75
